According to publication PMC5429603, “Discovery and characterization of verinurad, a potent and specific inhibitor of URAT1 for the treatment of hyperuricemia and gout” (Scientific Reports, 2017):
Where two headings read alike, the source gives them in different places.

What was measured:
human URAT1 h-S27P = target: T1, human URAT1 h-S27P (Homo sapiens, UniProt Q96S37, S27P); assay: URAT1 activity assay, h-S27P; type: cell-based
T1 construct: expressed in transfected cells; host or cells: HEK-293T
Description: (§1) Human URAT1 (GenBank BC053348.1, Homo sapiens SLC22A12), rat URAT1 (NCBI NM_001034943.1, Rattus norvegicus Slc22a12) and human OAT4 (NCBI NM_018484.2, Homo sapiens SLC22A11) genes were purchased from Origene Technologies, Inc. and subcloned into pCMV6/neo using NotI. Where indicated, controls transfections used pCMV6/neo. Mutants were produced by site-directed mutagenesis using the QuikChange Lightning Multi Site-Directed Mutagenesis Kit (Agilent Technologies). […] Mutagenic primer sequences are provided in ref. [15] and mutagenic primer sequences for previously unreported mutants shown in Supplementary Table 1. All constructs used in this study were untagged. Human OAT1 was purchased from Fisher Scientific (catalog # MHS1010–7508183 in pSPORT6, NCBI NM_153276.2, Homo sapiens SLC22A6).
(§2) HEK-293T cells were maintained in DMEM/high glucose/L-glutamine/HEPES supplemented with 1 mM sodium pyruvate (Life Technologies) and 10% FBS (PAA Laboratories) at 37 °C in 5% CO2. […]
(§3) URAT1 and OAT4 activity assays were performed in assay buffer consisting of 25 mM MES pH 5.5 (from a 1 M MES solution [Sigma] adjusted to pH 5.5 with sodium hydroxide), 125 mM sodium gluconate, 4.8 mM potassium gluconate, 1.2 mM monobasic potassium phosphate, 1.2 mM magnesium sulfate, 1.3 mM calcium gluconate and 5.6 mM glucose. […] Each treatment was measured in triplicate.

rat URAT1 = target: T2, rat URAT1 (Rattus norvegicus, UniProt Q3ZAV1); assay: URAT1 activity assay, rat URAT1; type: cell-based; details: rat URAT1 wild type; 14C-uric acid; read-out: IC50, inhibition of transport activity
T2 construct: host or cells: HEK-293T
T2 sequence (Q3ZAV1 1-553): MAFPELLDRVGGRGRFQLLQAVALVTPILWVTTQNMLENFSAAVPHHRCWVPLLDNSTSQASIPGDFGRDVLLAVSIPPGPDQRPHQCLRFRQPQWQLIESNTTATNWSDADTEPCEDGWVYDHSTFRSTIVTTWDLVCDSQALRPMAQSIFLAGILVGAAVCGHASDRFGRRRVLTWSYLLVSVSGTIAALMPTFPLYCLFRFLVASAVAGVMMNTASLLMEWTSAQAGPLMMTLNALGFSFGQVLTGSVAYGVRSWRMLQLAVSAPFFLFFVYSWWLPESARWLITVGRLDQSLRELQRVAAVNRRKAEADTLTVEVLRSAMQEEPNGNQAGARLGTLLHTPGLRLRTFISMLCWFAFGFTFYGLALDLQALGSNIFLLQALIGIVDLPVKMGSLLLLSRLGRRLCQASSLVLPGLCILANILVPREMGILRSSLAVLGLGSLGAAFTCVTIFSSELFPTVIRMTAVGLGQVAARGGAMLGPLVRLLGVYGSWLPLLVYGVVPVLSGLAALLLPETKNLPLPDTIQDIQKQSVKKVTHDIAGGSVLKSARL
Method: (§4) HEK-293T cells were maintained in DMEM/high glucose/L-glutamine/HEPES supplemented with 1 mM sodium pyruvate (Life Technologies) and 10% FBS (PAA Laboratories) at 37 °C in 5% CO2. To express URAT1, OAT4 or OAT1, plasmids were reverse transfected into HEK-293T cells. DNA (10 µg) was mixed with 30 µl of DreamFect Gold (Boca Scientific) in 2 ml OptiMem (Life Technologies). After 20 minutes, 18 ml of media containing 2 × 10^7 cells in suspension was added and mixed, and 200 µl per well were plated onto white clear-bottomed poly-D-lysine coated 96-well plates (BD Biosciences). The cells were assayed the following day.
as §3, with “glucose. URAT1 inhibitors were serially diluted into assay buffer and added to the cells for 5 minutes prior to addition of substrate. URAT1-expressing cells were incubated with 100 µM ^14C-uric acid for 10 minutes and OAT4-expressing cells were incubated with 20 µM carboxyfluorescein (Life Technologies, Inc.) for 5 minutes.” for “glucose.”

human URAT1 h-I481M = target: T3, human URAT1 h-I481M (Homo sapiens, UniProt Q96S37, I481M); assay: URAT1 activity assay, h-I481M; type: cell-based
T3 construct: expressed in transfected cells; host or cells: HEK-293T
Description: as §1, §2, §3

human URAT1 h-C32T = target: T4, human URAT1 h-C32T (Homo sapiens, UniProt Q96S37, C32T); assay: URAT1 activity assay, h-C32T; type: cell-based
T4 construct: expressed in transfected cells; host or cells: HEK-293T
Description: as §1, §2, §3

healthy human volunteers = assay: Verinurad study in humans (sUA and FEUA after a single dose); type: in vivo; details: single 40 mg dose
Method: The study was conducted in accordance with Good Clinical Practice and the Declaration of Helsinki and with independent ethics committee (Welwyn Clinical Pharmacology Ethics Committee, Hatfield, UK) approval. Informed consent was obtained from all subjects before participating in the study. […] Urine samples were collected from 0 to 6 hours, 6 to 12 hours and 12 to 24 hours post dosing to measure the urinary excretion of uric acid and creatinine. FEUA was calculated using equation 1:1 FEUA=([urineuricacid]×[serumcreatinine])/([serumuricacid]×[urinecreatinine]) To determine time-weighted average plasma verinurad concentrations (TWA), plasma verinurad levels were first measured from serial plasma collections.

human URAT1 = target: T5, human URAT1 (Homo sapiens, UniProt Q96S37); assay: URAT1 activity assay (14C-uric acid transport), human URAT1; type: cell-based; design: host or cells: HEK-293T
T5 sequence (Q96S37 1-553): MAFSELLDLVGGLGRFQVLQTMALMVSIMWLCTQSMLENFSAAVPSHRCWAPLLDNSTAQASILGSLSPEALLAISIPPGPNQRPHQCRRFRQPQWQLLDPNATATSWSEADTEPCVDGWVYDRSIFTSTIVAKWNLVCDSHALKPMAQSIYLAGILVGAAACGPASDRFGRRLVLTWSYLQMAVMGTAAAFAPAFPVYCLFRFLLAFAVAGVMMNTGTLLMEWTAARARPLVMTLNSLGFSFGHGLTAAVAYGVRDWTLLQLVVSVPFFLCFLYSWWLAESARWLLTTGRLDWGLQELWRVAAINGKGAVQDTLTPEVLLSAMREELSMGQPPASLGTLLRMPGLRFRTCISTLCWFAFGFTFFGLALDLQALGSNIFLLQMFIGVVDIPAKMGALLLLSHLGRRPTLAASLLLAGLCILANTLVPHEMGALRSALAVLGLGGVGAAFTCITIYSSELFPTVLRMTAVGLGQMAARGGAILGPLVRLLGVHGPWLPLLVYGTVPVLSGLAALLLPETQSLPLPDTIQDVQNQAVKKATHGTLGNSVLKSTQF
Method: as §4
(§5) URAT1 and OAT4 activity assays were performed in assay buffer consisting of 25 mM MES pH 5.5 (from a 1 M MES solution [Sigma] adjusted to pH 5.5 with sodium hydroxide), 125 mM sodium gluconate, 4.8 mM potassium gluconate, 1.2 mM monobasic potassium phosphate, 1.2 mM magnesium sulfate, 1.3 mM calcium gluconate and 5.6 mM glucose. URAT1 inhibitors were serially diluted into assay buffer and added to the cells for 5 minutes prior to addition of substrate. URAT1-expressing cells were incubated with 100 µM ^14C-uric acid for 10 minutes and OAT4-expressing cells were incubated with 20 µM carboxyfluorescein (Life Technologies, Inc.) for 5 minutes. Cells were then washed three times in 25 mM MES pH 5.5/125 mM sodium gluconate, and solubilized in Ultima Gold (Perkin Elmer) prior to liquid scintillation counting. Each treatment was measured in triplicate.

human OAT4 = target: T6, human OAT4 (Homo sapiens, UniProt Q9NSA0); assay: OAT4 activity assay (carboxyfluorescein transport); type: cell-based
T6 construct: host or cells: HEK-293T
Method: as §4
as §5, with “Cells were then washed three times in 25 mM MES pH 5.5/125 mM sodium gluconate, and solubilized in Ultima Gold (Perkin Elmer) prior to liquid scintillation counting.” left out

T4 sequence (Q96S37 whole entry C32T): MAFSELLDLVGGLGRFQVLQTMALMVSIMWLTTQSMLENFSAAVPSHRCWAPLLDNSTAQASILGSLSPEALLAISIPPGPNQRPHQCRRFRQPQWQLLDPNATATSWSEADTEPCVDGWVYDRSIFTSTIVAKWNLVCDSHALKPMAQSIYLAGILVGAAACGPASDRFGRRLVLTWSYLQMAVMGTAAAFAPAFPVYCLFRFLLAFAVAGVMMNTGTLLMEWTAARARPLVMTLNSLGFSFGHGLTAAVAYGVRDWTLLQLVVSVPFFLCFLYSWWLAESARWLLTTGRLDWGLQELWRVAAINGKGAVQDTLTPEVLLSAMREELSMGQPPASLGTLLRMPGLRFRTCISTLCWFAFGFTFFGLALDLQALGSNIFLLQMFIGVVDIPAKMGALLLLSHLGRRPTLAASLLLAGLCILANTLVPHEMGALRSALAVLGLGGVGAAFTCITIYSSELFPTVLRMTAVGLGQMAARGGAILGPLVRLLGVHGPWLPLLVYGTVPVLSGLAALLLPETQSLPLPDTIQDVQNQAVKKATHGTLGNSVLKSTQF
T1 sequence (Q96S37 whole entry S27P): as the sequence (Q96S37 whole entry C32T) above, with S27P, T32C counted along it
T6 sequence (Q9NSA0 whole entry): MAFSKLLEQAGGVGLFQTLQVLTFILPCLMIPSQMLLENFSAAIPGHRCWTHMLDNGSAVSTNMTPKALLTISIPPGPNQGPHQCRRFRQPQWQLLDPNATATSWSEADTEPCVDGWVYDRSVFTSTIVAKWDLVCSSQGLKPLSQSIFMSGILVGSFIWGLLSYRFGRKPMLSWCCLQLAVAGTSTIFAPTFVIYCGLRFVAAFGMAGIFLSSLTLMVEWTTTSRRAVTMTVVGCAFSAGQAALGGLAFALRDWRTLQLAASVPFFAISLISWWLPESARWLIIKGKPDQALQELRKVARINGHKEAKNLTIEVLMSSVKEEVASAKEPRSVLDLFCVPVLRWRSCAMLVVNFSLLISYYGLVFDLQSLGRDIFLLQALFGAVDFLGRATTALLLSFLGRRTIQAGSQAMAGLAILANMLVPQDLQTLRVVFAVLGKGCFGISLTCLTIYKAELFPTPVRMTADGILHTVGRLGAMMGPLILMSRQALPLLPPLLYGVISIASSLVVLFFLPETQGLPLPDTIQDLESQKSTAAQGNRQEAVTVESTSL
T3 sequence (Q96S37 whole entry I481M): as the sequence (Q96S37 whole entry C32T) above, with T32C, I481M counted along it

fold decrease in affinity (human URAT1 h-S27P; h-S27P vs human URAT1): 1.6 fold
IC50 (human URAT1 h-S27P; h-S27P, TM1 point mutant, read-out: Verinurad affinity (IC50)): 39 ± 9 nM
IC50 (rat URAT1): 41000 ± 2700 nM
fold reduction in affinity compared to human URAT1 (human URAT1 h-I481M): 2 fold
IC50 (human URAT1 h-I481M; TM11 point mutant, read-out: Verinurad affinity (IC50)): 53 ± 10 nM
fold reduced affinity relative to human URAT1 (human URAT1 h-C32T): 4 fold
IC50 (human URAT1 h-C32T; TM1 point mutant, read-out: Verinurad affinity (IC50)): 95 ± 26 nM
fold potency for URAT1 compared to other transporters (human URAT1; URAT1 vs other transporters): greater than 100 fold
IC50 (human URAT1; human URAT1 wild type in HEK-293T, 100 µM 14C-uric acid, pH 5.5, read-out: IC50, inhibition of transport activity): 25 ± 3.6 nM
IC50 (human URAT1; human URAT1 wild type, read-out: IC50, inhibition of transport activity of human URAT1): 25 nM
IC50 (human OAT4; human OAT4 in HEK-293T, 20 µM carboxyfluorescein, read-out: IC50, inhibition of transport activity): 5900 ± 1400 nM
fold lower affinity compared to URAT1 (human OAT4; human OAT4 vs human URAT1): approximately 200 fold
Structure (SMILES): CC(C)(Sc1ccncc1-c1ccc(C#N)c2ccccc12)C(=O)O [Verinurad, 2-((3-(4-cyanonaphthalen-1-yl)pyrindin-4-yl)thio)-2-methylpropanoic acid]
time sUA is maintained below pretreatment levels (healthy human volunteers): 24 h
EC50 (healthy human volunteers; healthy human volunteers, time-weighted average plasma concentration, read-out: half-maximal effective concentration in plasma for increase in FEUA): 22 nM
